Consider eight compounds from PubChem BioAssay (NCI).

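Five concentrations, 48 hours, 96-well plates. TGI: total growth inhibition.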

Among the test systems are 786-0 renal; A549 NSCLC; CAKI-1 renal; HOP-62 NSCLC; HT29 colon; IGROV1 ovarian; K-562 leukemia; LOX IMVI melanoma; MALME-3M melanoma; RXF 393 renal; SF-268 CNS; SK-MEL-28 melanoma; SK-OV-3 ovarian; SNB-19 CNS; TK-10 renal; U251 CNS; UACC-257 melanoma; UACC-62 melanoma; NCI-H460 lung.
Test in all cases: NCI anticancer screen, dose series, 48 h

`COc1cc2cc3c4c(cc(OC)c(OC)c4c2cc1OC)CCN3C(=O)CCC(=O)O`: the TGI in the assay on 786-0 renal, in the assay with A549 NSCLC, in the assay with CAKI-1 renal, with HOP-62 NSCLC, in the assay on HT29 colon and in the assay on IGROV1 ovarian was more than 100 µM each time. Also, the TGI with K-562 leukemia, in the assay on LOX IMVI melanoma, in the assay with MALME-3M melanoma, in the assay on RXF 393 renal, in the assay on SF-268 CNS and in the assay with SK-MEL-28 melanoma was more than 100 µM each time. Besides, the TGI in the assay on SK-OV-3 ovarian, with SNB-19 CNS, with TK-10 renal, with U251 CNS, in the assay on UACC-257 melanoma and in the assay with UACC-62 melanoma was more than 100 µM in each case.

For `O=C1CCCC2=C1CC1=C(CCCC1=O)N2c1cccc([N+](=O)[O-])c1`, the TGI in the assay on 786-0 renal, in the assay on A549 NSCLC, in the assay on CAKI-1 renal, with HT29 colon, in the assay with IGROV1 ovarian and in the assay with K-562 leukemia was more than 100 µM each time. Also, the TGI with LOX IMVI melanoma, with NCI-H460 lung, in the assay with RXF 393 renal, with SF-268 CNS, in the assay with SK-MEL-28 melanoma and with SK-OV-3 ovarian was more than 100 µM in each case. Further, the TGI in the assay on SNB-19 CNS, with TK-10 renal, with U251 CNS and with UACC-62 melanoma was more than 100 µM throughout.

`COC[C@@H](N=CN1CCc2cc(OC)c(OC)cc2C1)C(C)(C)C`: the TGI in the assay on 786-0 renal, in the assay on A549 NSCLC, in the assay with CAKI-1 renal, in the assay on HOP-62 NSCLC, with HT29 colon and in the assay on IGROV1 ovarian was more than 100 µM each time. In addition, the TGI with K-562 leukemia, in the assay with MALME-3M melanoma, in the assay on NCI-H460 lung, in the assay on RXF 393 renal, in the assay on SF-268 CNS and in the assay on SK-MEL-28 melanoma was more than 100 µM each time. For the same compound, the TGI with SK-OV-3 ovarian, in the assay on SNB-19 CNS, with TK-10 renal, with U251 CNS, in the assay on UACC-257 melanoma and in the assay on UACC-62 melanoma was more than 100 µM each time.

Consider `Cc1c(-c2ccc(O)c(O)c2)oc(=O)c2c(O)cccc12`, for which the TGI in the assay on 786-0 renal is 23.4 µM; in the assay with A549 NSCLC, more than 100 µM; with CAKI-1 renal, 36 µM; in the assay with HOP-62 NSCLC it was 34.5 µM; in the assay with IGROV1 ovarian it was 20.1 µM; in the assay on K-562 leukemia, 28.1 µM. Also, the TGI in the assay with MALME-3M melanoma is 26.9 µM; in the assay on NCI-H460 lung, 41 µM; with RXF 393 renal it was 36 µM; with SF-268 CNS, 50.7 µM; in the assay on SK-OV-3 ovarian, 40.9 µM; in the assay with SNB-19 CNS, 36.1 µM. The TGI with TK-10 renal came out at 67 µM; in the assay on U251 CNS, 26.1 µM; in the assay with UACC-257 melanoma it was 44.3 µM.

As for `Cc1cc(C)c(C(=O)/C=C/c2ccccc2)c(C)c1`, the TGI in the assay on 786-0 renal was 81.6 µM; in the assay with A549 NSCLC it was more than 100 µM; with CAKI-1 renal, more than 100 µM; with HOP-62 NSCLC, 76 µM; in the assay on HT29 colon, more than 100 µM; in the assay on IGROV1 ovarian it was more than 100 µM. The TGI was more than 100 µM with K-562 leukemia; 83.5 µM with MALME-3M melanoma; 39.3 µM with NCI-H460 lung; 34.5 µM in the assay on RXF 393 renal; 50.6 µM in the assay on SF-268 CNS; more than 100 µM in the assay on SK-OV-3 ovarian. Moreover, the TGI was 75.3 µM with SNB-19 CNS; more than 100 µM in the assay with TK-10 renal; 29.4 µM in the assay with U251 CNS; more than 100 µM with UACC-257 melanoma; more than 100 µM with UACC-62 melanoma.

Consider `Clc1cccc2c1OCC1C(c3ccccc3)=NN(c3ccccc3)C21` (stereo not given), for which the TGI in the assay with 786-0 renal, in the assay on A549 NSCLC, in the assay with HOP-62 NSCLC, with HT29 colon, in the assay with IGROV1 ovarian and with K-562 leukemia was more than 100 µM throughout. Also, the TGI in the assay with LOX IMVI melanoma, in the assay on MALME-3M melanoma, in the assay on NCI-H460 lung, in the assay with RXF 393 renal, in the assay with SF-268 CNS and with SK-MEL-28 melanoma was more than 100 µM each time. Also, the TGI in the assay with SK-OV-3 ovarian, with SNB-19 CNS, in the assay on TK-10 renal, in the assay on U251 CNS and with UACC-257 melanoma was more than 100 µM in each case.

For `NC(C(=O)OC(=O)c1ccccc1)C(=O)OC(=O)c1ccccc1`, the TGI in the assay on 786-0 renal, in the assay on A549 NSCLC, with CAKI-1 renal, with HOP-62 NSCLC, in the assay with HT29 colon and with K-562 leukemia was more than 100 µM throughout. The TGI with LOX IMVI melanoma, in the assay with MALME-3M melanoma, with NCI-H460 lung, in the assay with RXF 393 renal, with SF-268 CNS and in the assay with SK-MEL-28 melanoma was more than 100 µM throughout. Further, the TGI with SNB-19 CNS, with TK-10 renal, with U251 CNS and in the assay with UACC-257 melanoma was more than 100 µM in each case.

For `CCCCc1c2c(nc3c1CC/C(=C\c1ccc([N+](=O)[O-])cc1)C3=O)CCCC2`, the TGI in the assay with 786-0 renal came to 2.77 µM; with A549 NSCLC, 16.3 µM; with HOP-62 NSCLC it was 3.29 µM; in the assay on HT29 colon, 2.66 µM; in the assay on IGROV1 ovarian it was 3.24 µM; with K-562 leukemia, 6.88 µM. The TGI came out at 3.05 µM in the assay on LOX IMVI melanoma; 3.84 µM in the assay on MALME-3M melanoma; 2.92 µM in the assay with NCI-H460 lung; 2.63 µM in the assay on RXF 393 renal; 3.93 µM with SF-268 CNS; 3.12 µM in the assay with SK-MEL-28 melanoma. The TGI in the assay on SK-OV-3 ovarian is 3.91 µM; in the assay on SNB-19 CNS, 3.67 µM; in the assay with TK-10 renal it was 3.17 µM; in the assay on U251 CNS, 2.96 µM; in the assay with UACC-257 melanoma, 4.6 µM; with UACC-62 melanoma it was 3 µM.
